This assay addresses T1, Ubiquitin carboxyl-terminal hydrolase 5 (Homo sapiens, UniProt P45974).
T1 sequence (P45974 whole entry): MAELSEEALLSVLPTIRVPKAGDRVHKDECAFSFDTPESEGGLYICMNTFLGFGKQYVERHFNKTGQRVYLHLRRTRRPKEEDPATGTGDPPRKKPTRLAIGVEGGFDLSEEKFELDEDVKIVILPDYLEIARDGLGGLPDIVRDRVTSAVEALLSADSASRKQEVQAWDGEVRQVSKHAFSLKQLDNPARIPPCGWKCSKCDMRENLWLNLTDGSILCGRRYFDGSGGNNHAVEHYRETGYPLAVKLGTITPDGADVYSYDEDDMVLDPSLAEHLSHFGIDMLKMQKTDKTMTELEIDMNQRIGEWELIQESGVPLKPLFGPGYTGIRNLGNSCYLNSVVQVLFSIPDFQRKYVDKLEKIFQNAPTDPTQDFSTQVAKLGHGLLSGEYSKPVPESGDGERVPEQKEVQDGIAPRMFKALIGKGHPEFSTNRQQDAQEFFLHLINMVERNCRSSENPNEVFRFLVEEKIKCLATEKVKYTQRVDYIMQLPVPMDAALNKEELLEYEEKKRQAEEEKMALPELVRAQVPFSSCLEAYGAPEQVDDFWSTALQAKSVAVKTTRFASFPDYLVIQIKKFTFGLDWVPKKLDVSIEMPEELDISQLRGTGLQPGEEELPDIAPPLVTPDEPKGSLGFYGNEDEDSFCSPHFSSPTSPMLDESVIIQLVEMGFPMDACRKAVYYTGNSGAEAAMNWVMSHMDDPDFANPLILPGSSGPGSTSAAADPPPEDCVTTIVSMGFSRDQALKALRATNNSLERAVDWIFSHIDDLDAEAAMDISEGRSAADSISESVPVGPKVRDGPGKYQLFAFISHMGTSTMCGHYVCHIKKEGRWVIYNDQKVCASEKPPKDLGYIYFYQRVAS
In words: Competitive inhibition of wild type human USP5 expressed in Escherichia coli BL21(DE3) using Ub-AMC as substrate.

pKi: −log10 of the molar value.

`O=C(Cc1ccccc1)Oc1c(OC(=O)Cc2ccccc2)c(-c2ccc(O)cc2)c(O)c(O)c1-c1ccc(O)cc1` [VIALININ A] had a negative logarithm of the Ki (pKi) of 4.90.

Broadly, the pKi is the negative decadic logarithm of the Ki, by convention in mol/L.

(Values after ChEMBL document CHEMBL2406999, “Vialinin A is a ubiquitin-specific peptidase inhibitor” (Bioorg Med Chem Lett, 2013).)
